Paper PMC3348135, “Identification of New Agonists and Antagonists of the Insect Odorant Receptor Co-Receptor Subunit” (PLoS ONE, 2012)
Like-named read-outs stand apart in the source and are kept apart here.

Assays:
[1] = Solubility in recording solution (observation); format: physicochemical; conditions: aqueous recording solution, higher concentrations (OLC2: above 100 µM)
Procedure: (§1) Odorant and Orco ligand induced currents were recorded under two-electrode voltage clamp in Xenopus laevis oocytes expressing ORs, using an automated parallel electrophysiology system (OpusExpress 6000A; Molecular Devices). Oocytes were perfused with ND96 (in mM: 96 NaCl, 2 KCl, 1 CaCl2, 1 MgCl2, 5 HEPES, pH 7.5). Odorant stock solutions (0.5 or 1 M) and Orco ligand stock solutions (100 mM) were prepared in DMSO and diluted in ND96. Unless otherwise noted, applications were for 60 sec at a flow rate of 1.0 ml/min, with extensive washing in ND96 (9 or 20 min at 4.6 ml/min) between applications. Micropipettes were filled with 3 M KCl and had resistances of 0.2−2.0 MΩ. The holding potential was −70 mV. Current responses, filtered (4-pole, Bessel, low pass) at 20 Hz (−3 db) and sampled at 100 Hz, were captured and stored using OpusXpress 1.1 software (Molecular Devices).

[2] = test system: sham (water) injected oocytes; assay: Response of sham (water) injected oocytes to Orco ligands; format: cell-based, Xenopus laevis; conditions: 100 µM, 60 sec application
Procedure: (§2) Oocytes were surgically removed from mature Xenopus laevis frogs. Follicle cells were removed by treatment with Collagenase B (Boehringer Mannhem) for 2 hours at room temperature. Capped cRNA encoding each DmOR subunit was generated using mMessage mMachine kits (Ambion). For heteromeric ORs, 25 ng of cRNA encoding each OR subunit was injected into Stage V-VI Xenopus oocytes. For expression of Orco alone, 50 ng of cRNA was injected. Oocytes were incubated at 18°C in Barth’s saline (in mM: 88 NaCl, 1 KCl, 2.4 NaHCO3, 0.3 CaNO3, 0.41 CaCl2, 0.82 MgSO4, 15 HEPES, pH 7.6, and 150 µg/ml ceftazidime) for 2–5 days prior to electrophysiological recording.
as §1

Onub\Orco + Onub\Or1 = assay: Agonist activation of Onub\Orco + Onub\Or1 in Xenopus oocytes, two-electrode voltage clamp; format: cell-based, Ostrinia nubilalis; conditions: 100 µM compound; mean ± SEM, n=3-8
Dmel\Orco = molecular target: T1, Dmel\Orco (Drosophila melanogaster, UniProt Q9VNB5); assay: Agonist activation of homomeric Dmel\Orco in Xenopus oocytes, two-electrode voltage clamp; format: cell-based; conditions: for EC50: concentration-response, responses normalized to 30 µM OLC3, saturation not obtained for OLC3 and VUAA1; for Emax at 100 µM: read-out: Response amplitude as percentage of response to 100 µM OLC3, Dmel\Orco
T1 construct: expressed in transfected cells; host or cells: Xenopus laevis oocytes (cRNA injection, pGEMHE)
T1 sequence (Q9VNB5 1-486): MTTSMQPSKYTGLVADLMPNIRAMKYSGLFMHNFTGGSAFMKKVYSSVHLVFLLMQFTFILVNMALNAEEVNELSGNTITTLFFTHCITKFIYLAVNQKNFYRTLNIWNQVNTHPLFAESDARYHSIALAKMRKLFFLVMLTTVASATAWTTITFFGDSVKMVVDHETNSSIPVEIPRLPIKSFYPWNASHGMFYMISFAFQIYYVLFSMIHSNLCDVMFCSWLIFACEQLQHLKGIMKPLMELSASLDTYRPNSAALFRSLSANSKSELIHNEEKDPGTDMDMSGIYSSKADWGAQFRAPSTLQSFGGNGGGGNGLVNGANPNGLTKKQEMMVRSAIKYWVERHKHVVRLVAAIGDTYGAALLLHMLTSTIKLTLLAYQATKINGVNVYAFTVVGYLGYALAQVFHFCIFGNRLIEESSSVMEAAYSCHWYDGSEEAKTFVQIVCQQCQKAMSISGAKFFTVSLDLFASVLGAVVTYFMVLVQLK
Procedure: as §2, §1
(§3) Initial analysis of electrophysiological data was done using Clampfit 9.1 software (Molecular Devices). Curve fitting and statistical analyses were done using Prism 5 (Graphpad). Concentration-response data were fit to the equation: I = Imax/(1+(EC50/X)^n) where I represents the current response at a given concentration of odorant, X; Imax is the maximal response; EC50 is the concentration of agonist yielding a half maximal response; n is the apparent Hill coefficient. Concentration-inhibition data were fit to the equation: I = Imax/(1+(X/IC50)^n) where I represents the current response at a given concentration of inhibitor, X; Imax is the maximal response in the absence of inhibitor; IC50 is the concentration of inhibitor present that still allows a half maximal response from odorant; n is the apparent Hill coefficient. Statistical significance was assessed using a two-tailed unpaired t test, an F test, or a one-way analysis of variance followed by the Bonferroni’s post-test, as appropriate.

Cqui\Orco = assay: Agonist activation of homomeric Cqui\Orco in Xenopus oocytes, two-electrode voltage clamp; format: cell-based, Culex quinquefasciatus; conditions: 100 µM compound; mean ± SEM, n=3-8
Dmel\Orco + Dmel\Or35a = molecular target: T2, Dmel\Orco + Dmel\Or35a (Drosophila melanogaster, UniProt Q9VNB5); assay: Agonist activation of Dmel\Orco + Dmel\Or35a in Xenopus oocytes, two-electrode voltage clamp; format: cell-based; conditions: for EC50: concentration-response, responses normalized to 30 µM OLC3; for Emax at 100 µM: read-out: Response amplitude as percentage of response to 100 µM OLC3, Dmel\Orco + Dmel\Or35a
T2 construct: expressed in transfected cells; host or cells: Xenopus laevis oocytes (cRNA injection, pGEMHE)
T2 sequence (Q9VNB5 1-486): T1 sequence (Q9VNB5 1-486)
T2 sequence (Q9V3Q2 1-409 partner): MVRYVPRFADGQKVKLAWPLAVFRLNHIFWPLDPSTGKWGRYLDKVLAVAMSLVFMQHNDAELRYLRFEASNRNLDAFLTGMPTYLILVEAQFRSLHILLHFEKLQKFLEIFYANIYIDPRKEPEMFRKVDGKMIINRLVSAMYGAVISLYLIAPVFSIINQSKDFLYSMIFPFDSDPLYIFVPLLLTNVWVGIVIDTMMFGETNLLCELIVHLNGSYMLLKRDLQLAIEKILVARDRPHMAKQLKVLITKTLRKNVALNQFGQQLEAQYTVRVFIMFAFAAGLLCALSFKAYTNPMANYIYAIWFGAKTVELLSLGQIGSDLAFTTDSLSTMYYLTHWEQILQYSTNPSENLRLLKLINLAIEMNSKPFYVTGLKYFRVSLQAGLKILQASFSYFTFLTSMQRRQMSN
Procedure: as §2, §1, §3

Cqui\Orco + Cqui\Or10 [3] = molecular target: T3, Cqui\Orco + Cqui\Or10 (Culex quinquefasciatus, UniProt D5LMR7+Q309I4); assay: Activation of Cqui\Orco + Cqui\Or10 in Xenopus oocytes, two-electrode voltage clamp; format: cell-based; conditions: for Emax at 100 µM: 100 µM compound, mean ± SEM, n=3-8, read-out: Response amplitude as percentage of response to 100 µM OLC3, Cqui\Orco + Cqui\Or10
Procedure: as §2, §1, §3

Cqui\Orco + Cqui\Or10 [4] = molecular target: T3, Cqui\Orco + Cqui\Or10; parameters: method as in PMID 20623327; conditions: read-out: EC50 for activation of Cqui\Orco+Cqui\Or10 by 3-methylindole; cited from earlier work

T3 sequence (D5LMR7 entry or part of it): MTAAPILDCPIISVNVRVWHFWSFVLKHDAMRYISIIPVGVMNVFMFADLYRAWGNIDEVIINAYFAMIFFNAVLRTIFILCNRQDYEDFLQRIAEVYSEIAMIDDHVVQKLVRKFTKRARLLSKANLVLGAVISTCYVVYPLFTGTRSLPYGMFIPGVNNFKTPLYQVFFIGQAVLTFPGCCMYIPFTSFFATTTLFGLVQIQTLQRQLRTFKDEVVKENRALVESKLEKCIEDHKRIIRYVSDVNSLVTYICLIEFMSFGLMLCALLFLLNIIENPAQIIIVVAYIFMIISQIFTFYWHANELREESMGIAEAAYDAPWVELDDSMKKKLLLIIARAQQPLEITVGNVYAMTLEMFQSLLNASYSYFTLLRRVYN
T3 sequence (Q309I4 entry or part of it): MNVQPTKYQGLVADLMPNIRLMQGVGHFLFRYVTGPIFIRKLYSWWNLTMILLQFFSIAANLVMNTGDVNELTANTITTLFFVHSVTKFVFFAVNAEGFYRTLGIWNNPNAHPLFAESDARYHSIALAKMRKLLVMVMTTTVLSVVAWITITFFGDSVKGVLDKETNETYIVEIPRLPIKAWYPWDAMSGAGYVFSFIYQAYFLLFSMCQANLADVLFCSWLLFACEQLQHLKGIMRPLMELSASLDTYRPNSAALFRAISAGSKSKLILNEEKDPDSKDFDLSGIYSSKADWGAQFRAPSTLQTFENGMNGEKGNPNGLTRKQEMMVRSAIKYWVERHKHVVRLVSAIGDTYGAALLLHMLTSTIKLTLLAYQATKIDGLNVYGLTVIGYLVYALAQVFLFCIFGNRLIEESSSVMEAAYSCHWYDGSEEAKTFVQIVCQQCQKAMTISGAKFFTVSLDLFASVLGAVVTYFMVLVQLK

EC50 (Cqui\Orco + Cqui\Or10 [3]; absence of OLC15, read-out: EC50 for 3-MI activation of Cqui\Orco + Cqui\Or10) [µM]	EC50 (Cqui\Orco + Cqui\Or10 [3]; in presence of 3 µM OLC15, read-out: EC50 for 3-MI activation of Cqui\Orco + Cqui\Or10 in presence of OLC15) [µM]	SMILES	Solubility [1]	Response of sham (water) injected oocytes [2]	Response amplitude as percentage of response to 100 µM OLC3, Onub\Orco + Onub\Or1 (Onub\Orco + Onub\Or1) [%]	EC50 (Dmel\Orco) [µM]	Emax at 100 µM (Dmel\Orco) [%]	Response amplitude as percentage of response to 100 µM OLC3, Cqui\Orco (Cqui\Orco) [%]	EC50 (Dmel\Orco + Dmel\Or35a) [µM]	Emax at 100 µM (Dmel\Orco + Dmel\Or35a) [%]	Emax at 100 µM (Cqui\Orco + Cqui\Or10 [3]) [%]	EC50 (Cqui\Orco + Cqui\Or10 [4]) [µM]
–	–	CCc1ccc(NC(=O)CSc2nnc(-c3ccncc3)n2CC)cc1 [OLC3]	not fully soluble at higher concentrations	No responses	100	346 ± 126	100	100	56 ± 8	100	100	–
–	–	CCc1ccc(NC(=O)CSc2nnc(-c3cccnc3)n2CC)cc1 [VUAA1, reference compound]	not fully soluble at higher concentrations	No responses	60 ± 6	190 ± 30	24 ± 7	18 ± 8	57 ± 13	50 ± 9	75 ± 3	–
–	–	CCn1c(SCC(=O)Nc2ccc(C(C)C)cc2)nnc1-c1ccncc1 [OLC12]	–	No responses	306 ± 33	35 ± 3	318 ± 12	636 ± 78	18 ± 3	300 ± 41	289 ± 41	–
0.313 ± 0.103	0.275 ± 0.041	Cc1c[nH]c2ccccc12 [3-methylindole, reference compound]	–	–	–	–	–	–	–	–	–	0.09 ± 0.017
